Reference: patent US10995068B2, “Synthetic sphingolipid-like molecules, drugs, methods of their synthesis and methods of treatment” (The Regents of the University of California, priority 2015, dated 2021)
Read-outs that look alike come from different tables or passages of the source.

Assays:
[1] = system: PC3 prostate cancer cells; assay: Cell Titer Glo proliferation assay in PC3; type: cell-based, human; conditions: for IC50: Cell Titer Glo, 72 h, Mean ± SEM, n ≥ 3, read-out: IC50 values in prostate cancer cell lines, PC3; for activity in the prostate cancer cell proliferation assay (in words): PC3 and DU145, Cell Titer Glo
How it was run: (§1)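 Cells plated at 1,000 cells/well and left at least 24 h, then exposed to compound for 72 h. Permeabilised with 0.1% Triton-X100, lysed with Cell Titer-Glo reagent, luminescence read; IC50 from dose-response curves. PC3 grown in F12K with 10% FCS, DU145 in MEM with 10% FCS and pyruvate.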

[2] = system: DU145 prostate cancer cells; assay: Cell Titer Glo proliferation assay in DU145; type: cell-based, human; conditions: Mean ± SEM, n ≥ 3, read-out: IC50 values in prostate cancer cell lines, DU145
How it was run: as §1

[3] = system: PC3 prostate cancer cells; assay: Cell viability by vital dye exclusion and flow cytometry in PC3; type: cell-based, human; conditions: vital dye exclusion (DAPI) and flow cytometry, 72 h
Procedure: Thus, to determine whether analogues in accordance with embodiments of the invention are cytotoxic, studies were conducted using vital dye exclusion and flow cytometry (Table 2).
(§2) Viability assays: Cell Titer Glo assays (Cell Titer Glo Luminescent Cell Viability Assay kit, cat #G7571, Promega Corporation) are performed in clear bottom 96-well black cell culture plates (cat #655090, Greiner Bio-One, NC, USA). After plating at 1,000 cells/well in volume of 100 μl, cells are left undisturbed for at least 24 h before drug addition. After 72 h, cells are prepared for analysis by adding 10 μl of 0.1% Triton-X100 in PBS with shaking for 1 min at room temperature (RT). Cell Titer-Glo cell lysis reagent (20 μl) is then added followed by 1 min of shaking and a 10 min incubation in the dark at RT. Luminescence is detected using an IVIS imaging system (IVIS Lumina II, Perkin Elmer, USA). […] IC50s are determined using GraphPad Prism (GraphPad Software, Inc, La Jolla, Calif.). SupB-15 viability was determined by flow cytometry. Cell Titer Glo assays were performed with the other cell lines.

[4] = system: Colon (SW-620) cancer cell line; assay: IC50 in cancer cell lines (Table 3), colon; type: cell-based, human; conditions: Mean ± SEM, n ≥ 3
Procedure: (§3) Having observed a suitable potency of some embodiments of the invention, including, at least with compounds 3-6, 14 in prostate cancer cell lines, other cancer cell lines were tested with these compounds. […] Compounds that were active in prostate cancer cell lines also killed BCR-Abl-positive leukemia cells with similar potency to FTY720.
(§4) Cell culture studies: Sup-B15 cells are maintained at 2-3 million/mL in RPMI 1640 (Mediatech) supplemented with 10% fetal calf serum (FCS, Sigma-Aldrich), 10 mM Hepes (Mediatech), 55 μM β-mercaptoethanol (Sigma-Aldrich), 2 mM L-glutamine (Mediatech), and antibiotics. All adherent cells are maintained at 70-80% confluence. Cell are cultured in the following media: PC3 & A549, Ham's F12K (Corning Cell Gro) supplemented with 10% FCS and antibiotics; DU145 cells, MEM (Corning Cell Gro) supplemented with 10% FCS, 1 mM sodium pyruvate (Mediatech), and antibiotics; SW620 & MDA-MB-231, DMEM (Corning Cell Gro) with 10% FCS, 1 mM sodium pyruvate (Mediatech), and antibiotics; Panc-1 cells, DMEM (Corning Cell Gro) supplemented with 10% FCS and antibiotics. All of the above cell lines are available from the ATCC.
as §2

[5] = system: Lung (A-549) cancer cell line; assay: IC50 in cancer cell lines (Table 3), lung; type: cell-based, human; conditions: Mean ± SEM, n ≥ 3
Procedure: as §3, §4, §2

[6] = system: Pancreas (PANC-1) cancer cell line; assay: IC50 in cancer cell lines (Table 3), pancreas; type: cell-based, human; conditions: Mean ± SEM, n ≥ 3
Procedure: as §3, §4, §2

[7] = system: Breast (MDA-MB-231) cancer cell line; assay: IC50 in cancer cell lines (Table 3), breast; type: cell-based, human; conditions: Mean ± SEM, n ≥ 3
Procedure: as §3, §4, §2

Leukemia (SupB-15) cells = assay: IC50 in cancer cell lines (Table 3), leukemia; type: cell-based, human; conditions: flow cytometry, Mean ± SEM, n ≥ 3
Procedure: as §3, §4, §2

[8] = system: murine hematopoietic cell line FL5.12; assay: Viability of FL5.12 cells by vital dye exclusion; type: cell-based; conditions: Mus musculus; FL5.12 cells, 48 h, vital dye exclusion; n ≥3; read-out: IC50 (μM) [95% CI]
Procedure: Cell culture studies: FL5.12 cells (murine hematopoetic cells originally obtained from Craig Thompson, Memorial Sloan Kettering Cancer Center) were maintained at 0.1-0.5 million/ml in RPMI 1640 (Mediatech) supplemented with 10% fetal calf serum (FCS, Sigma-Aldrich), 10 mM Hepes (Mediatech), 500 pg/ml recombinant IL-3 (cat #575502, Biolegend), 55 μM β-mercaptoethanol (Sigma-Aldrich), 2 mM L-glutamine (Mediatech), and antibiotics. Cells were screened for Mycoplasma every 3 months using the Look-Out Mycoplasma PCR Detection kit (cat #MP0035, Sigma).
IC50 values were calculated using GraphPad Prism (GraphPad Software, Inc, La Jolla, Calif.).

CCCCCCCCc1ccc([C@H]2CCN[C@@H]2CO)cc1.Cl [Compound 5, (2S,3R)-2-(hydroxymethyl)-3-(4-octylphenyl)Pyrrolidinium chloride]
IC50 ([1]; Homo sapiens): 4 ± 0.7 µM
activity in the prostate cancer cell proliferation assay (in words) [1]: as active as FTY720
IC50 ([2]; Homo sapiens, DU-145, 72 h): 3.8 ± 0.4 µM
IC50 ([3]; Homo sapiens): 5.5 ± 0.4 µM
IC50 ([4]; Homo sapiens, SW-620): 2.5 ± 0.1 µM
IC50 ([5]; Homo sapiens, A549): 8.9 ± 1.4 µM
IC50 ([6]; Homo sapiens, PANC-1): 3.3 ± 0.5 µM
IC50 ([7]; Homo sapiens, MDA-MB-231): 2.1 ± 0.2 µM
IC50 (Leukemia (SupB-15) cells; Homo sapiens, SUP-B15): 5.1 ± 0.9 µM
IC50 [8]: 1.9 µM

CCCCCCCCc1ccc([C@@H]2CCN[C@H]2CO)cc1.Cl [Compound 6]
IC50 [1]: 3 ± 0.4 µM
activity in the prostate cancer cell proliferation assay (in words) [1]: as active as FTY720
IC50 ([2]; 72 h): 3.7 ± 0.4 µM
IC50 [3]: 5.4 ± 0.6 µM
IC50 [4]: 2.1 ± 0.2 µM
IC50 [5]: 8.4 ± 1.2 µM
IC50 [6]: 5 ± 0.9 µM
IC50 [7]: 4.9 ± 0.6 µM
IC50 (Leukemia (SupB-15) cells): 5.9 ± 0.1 µM

CCCCCCCCc1ccc(CCC(N)(CO)CO)cc1.Cl [FTY720, 2-Amino-2-[2-(4-octylphenyl)ethyl]propane 1,3-diol hydrochloride, reference compound]
IC50 ([1]; Homo sapiens): 2.6 ± 0.2 µM
IC50 ([2]; Homo sapiens, DU-145, 72 h): 3.1 ± 0.2 µM
IC50 ([3]; Homo sapiens): 4.8 ± 0.1 µM
IC50 ([4]; Homo sapiens, SW-620): 2.8 ± 0.1 µM
IC50 ([5]; Homo sapiens, A549): 6 ± 0.4 µM
IC50 ([6]; Homo sapiens, PANC-1): 4.6 ± 0.5 µM
IC50 ([7]; Homo sapiens, MDA-MB-231): 4 ± 0.1 µM
IC50 (Leukemia (SupB-15) cells; Homo sapiens, SUP-B15): 6.8 ± 0.7 µM
IC50 [8]: 2.4 µM
